Reference: ChEMBL document CHEMBL1201862, “PubChem BioAssay data set” (2004)
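Cultured in 96-well plates, cells were exposed to test compound for 48 hours across five concentrations. GI50 marks 50% less growth.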 The source made the active and inactive calls. Cut-off read from the data, not from the text of the source: active = GI50 up to about 1.1 µM and inactive = higher.

Columns and labels:
Test in all cases: DTP human tumour cell line panel, 48 h
NCI-H23 = system: NCI-H23
U-251 = system: U-251
SF-295 = system: SF-295
NCI-H460 = system: NCI-H460
LOX IMVI = system: LOX IMVI
OVCAR-5 = system: OVCAR-5
MDA-N = system: MDA-N
CCRF-CEM = system: CCRF-CEM
Malme-3M = system: Malme-3M
T47D = system: T47D
XF498 = system: XF498
RXF 393 = system: RXF 393
NCI/ADR-RES = system: NCI/ADR-RES
DU-145 = system: DU-145
HOP-92 = system: HOP-92
SK-MEL-28 = system: SK-MEL-28
COLO 205 = system: COLO 205
EKVX = system: EKVX
HCT-116 = system: HCT-116
DMS-273 = system: DMS-273
IGROV-1 = system: IGROV-1
SN12C = system: SN12C
SF-268 = system: SF-268
MDA-MB-231 = system: MDA-MB-231
HCT-15 = system: HCT-15
SK-MEL-2 = system: SK-MEL-2
PC-3 = system: PC-3
SK-OV-3 = system: SK-OV-3
HOP-62 = system: HOP-62
SNB-75 = system: SNB-75
SNB-78 = system: SNB-78
MOLT-4 = system: MOLT-4
M19-MEL = system: M19-MEL
OVCAR-3 = system: OVCAR-3
UACC-62 = system: UACC-62
BT-549 = system: BT-549
MCF7 = system: MCF7
KM12 = system: KM12
HT-29 = system: HT-29
M14 = system: M14
OVCAR-4 = system: OVCAR-4
K562 = system: K562
HCC 2998 = system: HCC 2998
OVCAR-8 = system: OVCAR-8
TK-10 = system: TK-10
CAKI-1 = system: CAKI-1
SW-620 = system: SW-620
HOP-18 = system: HOP-18
A498 = system: A498
NCI-H226 = system: NCI-H226
NCI-H522 = system: NCI-H522
ACHN = system: ACHN
MDA-MB-435 = system: MDA-MB-435
SK-MEL-5 = system: SK-MEL-5
DLD-1 = system: DLD-1
Hs-578T = system: Hs-578T
RPMI-8226 = system: RPMI-8226
A549 = system: A549
SR = system: SR
UACC-257 = system: UACC-257
SF-539 = system: SF-539
SNB-19 = system: SNB-19
UO-31 = system: UO-31
786-0 = system: 786-0
KM-20L2 = system: KM-20L2
HL-60 = system: HL-60
DMS-114 = system: DMS-114
LXFL 529 = system: LXFL 529

## CO[C@@]12[C@H](COC(N)=O)C3=C(C(=O)C(C)=C(N)C3=O)N1C[C@H]1[C@@H]2N1C (stereo not given in full) [PORFIROMYCIN]
NCI-H23
  GI50: 0.506 µM (active)
U-251
  GI50: 1.19 µM (inactive)
SF-295
  GI50: 0.398 µM (active)
NCI-H460
  GI50: 0.128 µM (active)
LOX IMVI
  GI50: 0.794 µM (active)
OVCAR-5
  GI50: 10.2 µM (inactive)
MDA-N
  GI50: 12.5 µM (inactive)
CCRF-CEM
  GI50: 0.993 µM (active)
Malme-3M
  GI50: 4.1 µM (inactive)
T47D
  GI50: 9.2 µM (inactive)
XF498
  GI50: 3.61 µM (inactive)
RXF 393
  GI50: 6.31 µM (inactive)
NCI/ADR-RES
  GI50: 29.4 µM (inactive)
DU-145
  GI50: 0.282 µM (active)
HOP-92
  GI50: 5.43 µM (inactive)
SK-MEL-28
  GI50: 12.3 µM (inactive)
COLO 205
  GI50: 2.22 µM (inactive)
EKVX
  GI50: 12.3 µM (inactive)
HCT-116
  GI50: 2.22 µM (inactive)
DMS-273
  GI50: 0.401 µM (active)
IGROV-1
  GI50: 5.62 µM (inactive)
SN12C
  GI50: 0.782 µM (active)
SF-268
  GI50: 3.46 µM (inactive)
MDA-MB-231
  GI50: 9.73 µM (inactive)
HCT-15
  GI50: 2.57 µM
SK-MEL-2
  GI50: 13.5 µM (inactive)
PC-3
  GI50: 12.6 µM (inactive)
SK-OV-3
  GI50: 4.62 µM (inactive)
HOP-62
  GI50: 0.291 µM (active)
SNB-75
  GI50: 1.1 µM (active)
SNB-78
  GI50: 9.68 µM (inactive)
MOLT-4
  GI50: 0.543 µM (active)
M19-MEL
  GI50: 2.74 µM (inactive)
OVCAR-3
  GI50: 6.76 µM (inactive)
UACC-62
  GI50: 0.466 µM (active)
BT-549
  GI50: 12.2 µM (inactive)
MCF7
  GI50: 0.714 µM (active)
KM12
  GI50: 6.97 µM (inactive)
HT-29
  GI50: 1.42 µM (inactive)
M14
  GI50: 0.65 µM (active)
OVCAR-4
  GI50: 9.68 µM (inactive)
K562
  GI50: 7.5 µM (inactive)
HCC 2998
  GI50: 1.95 µM (inactive)
OVCAR-8
  GI50: 3.95 µM (inactive)
TK-10
  GI50: 16.3 µM (inactive)
CAKI-1
  GI50: 0.948 µM (active)
SW-620
  GI50: 1.87 µM (inactive)
HOP-18
  GI50: 4.75 µM (inactive)
A498
  GI50: 6.31 µM (inactive)
NCI-H226
  GI50: 8.69 µM (inactive)
NCI-H522
  GI50: 4.59 µM (inactive)
ACHN
  GI50: 0.38 µM (active)
MDA-MB-435
  GI50: 12.3 µM (inactive)
SK-MEL-5
  GI50: 1.8 µM (inactive)
DLD-1
  GI50: 9.62 µM (inactive)
Hs-578T
  GI50: 16.6 µM (inactive)
RPMI-8226
  GI50: 8.41 µM (inactive)
A549
  GI50: 0.489 µM (active)
SR
  GI50: 0.409 µM (active)
UACC-257
  GI50: 8.28 µM (inactive)
SF-539
  GI50: 3.56 µM (inactive)
SNB-19
  GI50: 2.35 µM (inactive)
UO-31
  GI50: 13.9 µM (inactive)
786-0
  GI50: 8.57 µM (inactive)
KM-20L2
  GI50: 7.98 µM (inactive)
HL-60
  GI50: 0.34 µM (active)

## Cc1cc(N)c(C)c2c1[nH]c1ccc(O)cc12
NCI-H23
  GI50: > 100 µM (inactive)
U-251
  GI50: 88.5 µM (inactive)
SF-295
  GI50: > 100 µM (inactive)
NCI-H460
  GI50: > 100 µM (inactive)
LOX IMVI
  GI50: > 100 µM (inactive)
OVCAR-5
  GI50: > 100 µM (inactive)
CCRF-CEM
  GI50: 20.7 µM (inactive)
Malme-3M
  GI50: > 100 µM (inactive)
XF498
  GI50: 56.4 µM (inactive)
SK-MEL-28
  GI50: > 100 µM (inactive)
COLO 205
  GI50: 47.9 µM (inactive)
EKVX
  GI50: > 100 µM (inactive)
HCT-116
  GI50: > 100 µM (inactive)
DMS-273
  GI50: > 100 µM (inactive)
SN12C
  GI50: > 100 µM (inactive)
SF-268
  GI50: > 100 µM (inactive)
HCT-15
  GI50: > 100 µM
SK-MEL-2
  GI50: > 100 µM (inactive)
HOP-62
  GI50: > 100 µM (inactive)
SNB-78
  GI50: > 100 µM (inactive)
MOLT-4
  GI50: 32.4 µM (inactive)
M19-MEL
  GI50: 61 µM (inactive)
OVCAR-3
  GI50: 50.6 µM (inactive)
KM12
  GI50: > 100 µM (inactive)
HT-29
  GI50: > 100 µM (inactive)
M14
  GI50: > 100 µM (inactive)
OVCAR-4
  GI50: > 100 µM (inactive)
K562
  GI50: 35 µM (inactive)
HCC 2998
  GI50: > 100 µM (inactive)
OVCAR-8
  GI50: 88.5 µM (inactive)
TK-10
  GI50: 66.8 µM (inactive)
CAKI-1
  GI50: > 100 µM (inactive)
SW-620
  GI50: 39.1 µM (inactive)
DMS-114
  GI50: > 10 µM (inactive)
HOP-18
  GI50: > 100 µM (inactive)
NCI-H226
  GI50: > 100 µM (inactive)
NCI-H522
  GI50: 17 µM (inactive)
ACHN
  GI50: > 100 µM (inactive)
RPMI-8226
  GI50: 48.4 µM (inactive)
A549
  GI50: > 100 µM (inactive)
SR
  GI50: 45 µM (inactive)
UACC-257
  GI50: > 100 µM (inactive)
SF-539
  GI50: > 100 µM (inactive)
SNB-19
  GI50: > 100 µM (inactive)
UO-31
  GI50: > 100 µM (inactive)
786-0
  GI50: 91.8 µM (inactive)
HL-60
  GI50: 79.3 µM (inactive)

## O=C(O)CN(c1ccccc1)S(=O)(=O)c1ccc(NC(=O)c2ccccc2)cc1
NCI-H23
  GI50: > 100 µM (inactive)
U-251
  GI50: > 100 µM (inactive)
NCI-H460
  GI50: > 100 µM (inactive)
LOX IMVI
  GI50: > 100 µM (inactive)
OVCAR-5
  GI50: > 100 µM (inactive)
CCRF-CEM
  GI50: > 100 µM (inactive)
Malme-3M
  GI50: > 100 µM (inactive)
XF498
  GI50: > 100 µM (inactive)
RXF 393
  GI50: > 100 µM (inactive)
HOP-92
  GI50: > 100 µM (inactive)
SK-MEL-28
  GI50: > 100 µM (inactive)
COLO 205
  GI50: > 100 µM (inactive)
EKVX
  GI50: > 100 µM (inactive)
DMS-273
  GI50: > 100 µM (inactive)
IGROV-1
  GI50: > 100 µM (inactive)
LXFL 529
  GI50: > 100 µM (inactive)
SN12C
  GI50: > 100 µM (inactive)
SF-268
  GI50: > 100 µM (inactive)
HCT-15
  GI50: > 100 µM
SK-MEL-2
  GI50: > 100 µM (inactive)
SK-OV-3
  GI50: > 100 µM (inactive)
SNB-75
  GI50: > 100 µM (inactive)
MOLT-4
  GI50: > 100 µM (inactive)
M19-MEL
  GI50: > 100 µM (inactive)
UACC-62
  GI50: > 100 µM (inactive)
HT-29
  GI50: > 10 µM (inactive)
M14
  GI50: > 100 µM (inactive)
OVCAR-4
  GI50: > 100 µM (inactive)
K562
  GI50: > 100 µM (inactive)
OVCAR-8
  GI50: > 100 µM (inactive)
TK-10
  GI50: > 100 µM (inactive)
CAKI-1
  GI50: > 100 µM (inactive)
SW-620
  GI50: > 100 µM (inactive)
HOP-18
  GI50: > 100 µM (inactive)
A498
  GI50: > 100 µM (inactive)
NCI-H522
  GI50: > 100 µM (inactive)
ACHN
  GI50: > 100 µM (inactive)
DLD-1
  GI50: > 100 µM (inactive)
RPMI-8226
  GI50: > 100 µM (inactive)
A549
  GI50: > 100 µM (inactive)
UACC-257
  GI50: > 100 µM (inactive)
SF-539
  GI50: > 100 µM (inactive)
SNB-19
  GI50: > 100 µM (inactive)
UO-31
  GI50: > 100 µM (inactive)
786-0
  GI50: > 100 µM (inactive)
KM-20L2
  GI50: > 100 µM (inactive)
HL-60
  GI50: > 100 µM (inactive)
